Data reported in patent US8558011B2, “Cold menthol receptor-1 antagonists” (Janssen Pharmaceutica, NV, priority 2010, dated 2013).
Values joined by “and” are separate entries in the source; they are usually repeats but may differ in a detail not shown here. Identical values can stand only once.

Tests used:
[1] = system: CFA-induced Paw Radiant Heat Hypersensitivity; experiment: CFA-induced paw radiant heat hypersensitivity; assay type: in vivo, rat
Method: Intraplantar injection of Complete Freund's Adjuvant (CFA) in rodents results in a long-lasting inflammatory reaction, characterized by a pronounced hypersensitivity to both thermal and mechanical stimuli. This hypersensitivity peaks between 24-72 hours following injection and can last for several weeks. […] This paradigm also may be conducted with a multiple dosing or a prophylactic dosing regime designed to alter the course of hyperalgesia development. This test predicts the analgesic, anti-allodynic and antihyperalgesic effect of numerous effective clinical agents, including NSAIDS such as acetaminophen, aspirin and ibuprofen, and opioids such as morphine.
Each rat was placed in a test chamber on a warm glass surface and allowed to acclimate for approximately 10 minutes. A radiant thermal stimulus (beam of light) was then focused through the glass onto the plantar surface of each hind paw in turn. The thermal stimulus was automatically shut off by a photoelectric relay when the paw was moved or when the cut-off time was reached (20 seconds for radiant heat at ˜5 Amps). An initial (baseline) response latency to the thermal stimulus was recorded for each animal prior to the injection of CFA. Twenty-four hours following intraplantar CFA injection, the response latency of the animal to the thermal stimulus was then re-evaluated and compared to the animal's baseline response time. […] Immediately following the post-CFA latency assessment, test compound or vehicle (usually Solutol, hydroxypropyl methylcellulose, hydroxypropyl beta-cyclodextrin or PEG-400) was administered i.p. or p.o. to rats. […] The percent reversal (% R) of hypersenstivitiy was calculated according to the following formula: % Reversal=(Treatment Response−CFA Response)/(Baseline Response−CFA Response)×100.

canine TRPM8 = target: T1, canine TRPM8 (Canis lupus familiaris, UniProt Q1A7N1); experiment: In Vitro Canine TRPM8 Functional Assay (Ca2+-sensitive fluorescent dye, icilin activation, FLIPR/FDSS); assay type: cell-based; settings: HEK293 cells stably expressing canine TRPM8, icilin activation; for % I (1 μM): compound at 1 μM; for % I (0.5 μM): compound at 0.5 μM; for IC50: eight-point dose-response
T1 construct: expressed in transfected cells
T1 sequence (Q1A7N1 1-1104): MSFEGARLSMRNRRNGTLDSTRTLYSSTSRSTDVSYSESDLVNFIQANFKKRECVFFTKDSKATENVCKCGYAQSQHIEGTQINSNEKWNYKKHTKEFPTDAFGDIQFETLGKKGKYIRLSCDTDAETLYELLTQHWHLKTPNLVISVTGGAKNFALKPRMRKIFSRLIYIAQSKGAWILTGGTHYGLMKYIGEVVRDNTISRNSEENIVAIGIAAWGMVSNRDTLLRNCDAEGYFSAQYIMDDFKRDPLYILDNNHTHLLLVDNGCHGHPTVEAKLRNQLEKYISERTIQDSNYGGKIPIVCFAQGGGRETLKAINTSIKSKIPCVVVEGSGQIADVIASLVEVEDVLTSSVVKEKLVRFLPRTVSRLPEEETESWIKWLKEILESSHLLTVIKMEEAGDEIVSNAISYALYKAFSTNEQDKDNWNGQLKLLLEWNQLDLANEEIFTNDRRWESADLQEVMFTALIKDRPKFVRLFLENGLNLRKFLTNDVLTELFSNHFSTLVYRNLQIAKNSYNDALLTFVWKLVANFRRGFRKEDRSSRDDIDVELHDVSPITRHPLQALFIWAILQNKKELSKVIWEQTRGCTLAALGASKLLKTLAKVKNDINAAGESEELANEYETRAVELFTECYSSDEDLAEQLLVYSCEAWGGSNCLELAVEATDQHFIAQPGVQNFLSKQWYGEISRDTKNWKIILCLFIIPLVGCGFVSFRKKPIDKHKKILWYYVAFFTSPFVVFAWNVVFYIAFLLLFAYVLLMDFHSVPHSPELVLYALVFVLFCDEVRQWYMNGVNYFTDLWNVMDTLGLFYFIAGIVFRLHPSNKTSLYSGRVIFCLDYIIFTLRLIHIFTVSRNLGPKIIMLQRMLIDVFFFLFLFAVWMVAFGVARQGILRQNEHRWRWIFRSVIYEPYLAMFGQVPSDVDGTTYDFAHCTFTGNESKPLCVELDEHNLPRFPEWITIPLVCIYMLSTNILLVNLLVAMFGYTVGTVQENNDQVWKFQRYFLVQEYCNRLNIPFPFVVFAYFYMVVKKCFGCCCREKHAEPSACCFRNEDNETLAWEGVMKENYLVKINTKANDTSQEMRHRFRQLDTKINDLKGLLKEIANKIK
Method: The functional activity of compounds of Formula (I) was determined by measuring changes in intracellular calcium concentration using a Ca^2+-sensitive fluorescent dye. The changes in fluorescent signal were monitored by a fluorescence plate reader, either a FLIPR™ (Molecular Devices) or FDSS (Hamamatsu).
HEK293 cells stably expressing canine TRPM8 were routinely grown as monolayers in Dulbecco's minimum essential medium supplemented with 10% FBS, 1 mM L-glutamine, 100 units/mL penicillin, 100 ug/mL streptomycin and 400 μg/mL G418. Cells were maintained in 5% CO2 at 37° C. At 24 hrs prior to assay, cells were seeded in clear-base poly-D-lysine coated 384-well plates (BD Biosciences, NJ, USA) at a density of 5,000 cells per well in culture medium and grown overnight in 5% CO2 at 37° C. On assay day, growth media was removed and cells were loaded with Calcium 3 Dye (Molecular Devices) for 35 min at 37° C., under 5% CO2 and then for 25 min at room temperature and atmosphere. Subsequently, cells were tested for agonist-induced increases in intracellular Ca^2+ levels using FLIPR™ or FDSS. Cells were challenged with a compound of Formula (I) (at varying concentrations) and intracellular Ca^2+ was measured for 5 min prior to the addition of icilin to all wells to achieve a final concentration which produces approximately an 80% maximal response.
Basal FI was subtracted prior to normalizing data to percent of maximal response. Curves were generated using the average of quadruplicate wells for each data point, were analyzed using nonlinear regression of either sigmoidal dose response or sigmoidal dose response (variable slope). Finally, the EC50 and IC50 values were calculated with the best-fit dose curve determined by GraphPad Prism.

In the case of `CC(C)OP(=O)(OC(C)C)C(Cc1ccc(F)c(F)c1)c1sc2ccccc2c1Cl` (stereo not drawn) [Cpd 12, [1-(3-Chloro-benzo[b]thiophen-2-yl)-2-(3,4-difluoro-phenyl)-ethyl]-phosphonic acid diisopropyl ester], the “% Reversal” value ([1]; 30 mg/kg i.p., time 1 h) is reported as 105% and the “% I (1 μM)” value (canine TRPM8) is reported as 100%.
`CCOP(=O)(OCC)C(Cc1ccc(F)c(F)c1)c1sc2ccccc2c1Br` (stereo not drawn) [Cpd 127, [1-(3-Bromo-benzo[b]thiophen-2-yl)-2-(3,4-difluoro-phenyl)-ethyl]-phosphonic acid dethyl ester] was tested, and the “% Reversal” value ([1]; 30 mg/kg p.o., time 1 (h)) was 88% and the “% I (1 μM)” value (canine TRPM8) was 100%.
For `CCOP(=O)(OCC)C(Cc1cccc(Cl)c1)c1sc2ccccc2c1Br` (stereo not drawn) [Cpd 137, [1-(3-Bromo-benzo[b]thiophene-2-yl)-2-(3-chloro-phenyl)-ethyl]-phosphonic acid diethyl ester], the “% Reversal” value ([1]; 30 mg/kg p.o., time 1 (h)) was 34% and the “% I (0.5 μM)” value (canine TRPM8) was 102%.
`CCOP(=O)(OCC)C(Cc1ccc(F)cc1)c1sc2ccccc2c1Br` (stereo not drawn) [Cpd 238, [1-(3-Bromo-benzo[b]thiophen-2-yl)-2-(4-fluoro-phenyl)-ethyl]-phosphonic acid diethyl ester] was tested, and the “% Reversal” value ([1]; 30 mg/kg p.o., time 2 (h)) was 56% and the “% I (0.5 μM)” value (canine TRPM8) was 104%.
For `CCOP(=O)(OCC)C(Cc1ccc(F)c(Cl)c1)c1sc2ccccc2c1Br` (stereo not drawn) [Cpd 244], the “% Reversal” value ([1]; 30 mg/kg p.o., time 2 (h)) was 45%, the IC50 (canine TRPM8) was 28 nM and the “% I (0.5 μM)” value (canine TRPM8) was 103%.
For `CCOP(=O)(OCC)C(Cc1cccc(C(F)(F)F)c1Cl)c1sc2ccccc2c1Cl` (stereo not drawn) [Cpd 280], the IC50 (canine TRPM8) was 227 nM and the “% I (0.5 μM)” value (canine TRPM8) was 101%.
In the case of `CCOP(=O)(OCC)C(Cc1cccc(C(F)(F)F)c1F)c1sc2ccccc2c1Cl` (stereo not drawn) [Cpd 281], the IC50 (canine TRPM8) is reported as 131 nM and the “% I (0.5 μM)” value (canine TRPM8) is reported as 102%.
In the case of `CCOP(=O)(OCC)C(Cc1cc(C(F)(F)F)cc(C(F)(F)F)c1)c1sc2ccccc2c1Cl` (stereo not drawn) [Cpd 282], the IC50 (canine TRPM8) is reported as 235 nM and the “% I (0.5 μM)” value (canine TRPM8) is reported as 100%.
In the case of `CCOP(=O)(OCC)C(Cc1ccc(SC(F)(F)F)cc1)c1sc2ccccc2c1Cl` (stereo not drawn) [Cpd 283], the IC50 (canine TRPM8) is reported as 125 nM and the “% I (0.5 μM)” value (canine TRPM8) is reported as 103%.
With `CCOP(=O)(OCC)C(Cc1ccc(F)cc1)c1sc2ccccc2c1Cl` (stereo not drawn) [Cpd 284] the IC50 (canine TRPM8) was 79 nM and 65 nM and the “% I (0.5 μM)” value (canine TRPM8) was 103% and 102%.
For `CCOP(=O)(OCC)C(Cc1ccc(C(F)(F)F)cc1)c1sc2ccccc2c1Cl` (stereo not drawn) [Cpd 285], the IC50 (canine TRPM8) was 125 nM and the “% I (0.5 μM)” value (canine TRPM8) was 103%.
In the case of `CCOP(=O)(OCC)C(Cc1cc(C(F)(F)F)ccc1F)c1sc2ccccc2c1Cl` (stereo not drawn) [Cpd 286], the IC50 (canine TRPM8) is reported as 127 nM and the “% I (0.5 μM)” value (canine TRPM8) is reported as 102%.
With `CCOP(=O)(OCC)C(Cc1ccc(Cl)c(C(F)(F)F)c1)c1sc2ccccc2c1Cl` (stereo not drawn) [Cpd 287] the IC50 (canine TRPM8) was 124 nM and the “% I (0.5 μM)” value (canine TRPM8) was 103%.
For `CC(C)OP(=O)(OC(C)C)C(Cc1ccc(Cl)cc1)c1sc2ccccc2c1Br` (stereo not drawn) [Cpd 288], the IC50 (canine TRPM8) was 65 nM and the “% I (0.5 μM)” value (canine TRPM8) was 103%.
With `CC(C)OP(=O)(OC(C)C)C(Cc1ccc(C(F)(F)F)cc1F)c1sc2ccccc2c1Br` (stereo not drawn) [Cpd 289] the IC50 (canine TRPM8) was 51 nM and the “% I (0.5 μM)” value (canine TRPM8) was 103%.
`CCOP(=O)(OCC)C(Cc1cccc(Cl)c1)c1sc2ccccc2c1Cl` (stereo not drawn) [Cpd 290] was tested, and the IC50 (canine TRPM8) was 115 nM and the “% I (0.5 μM)” value (canine TRPM8) was 103%.
With `CCOP(=O)(OCC)C(Cc1ccc(C(F)(F)F)cc1F)c1sc2ccccc2c1Cl` (stereo not drawn) [Cpd 291] the IC50 (canine TRPM8) was 156 nM and the “% I (0.5 μM)” value (canine TRPM8) was 103%.
In the case of `CCOP(=O)(OCC)C(Cc1ccc(OC)c(C(F)(F)F)c1)c1sc2ccccc2c1Cl` (stereo not drawn) [Cpd 292], the IC50 (canine TRPM8) is reported as 216 nM and the “% I (0.5 μM)” value (canine TRPM8) is reported as 99%.
`CCOP(=O)(OCC)C(Cc1ccc(Cl)cc1)c1sc2ccccc2c1Cl` (stereo not drawn) [Cpd 293] was tested, and the IC50 (canine TRPM8) was 156 nM and the “% I (0.5 μM)” value (canine TRPM8) was 103%.
With `CCOP(=O)(OCC)C(Cc1ccc(F)c(C(F)(F)F)c1)c1sc2ccccc2c1Cl` (stereo not drawn) [Cpd 294] the IC50 (canine TRPM8) was 118 nM and the “% I (0.5 μM)” value (canine TRPM8) was 103%.
With `CCOP(=O)(OCC)C(Cc1cccc(Br)c1)c1sc2ccccc2c1Br` (stereo not drawn) [Cpd 295] the IC50 (canine TRPM8) was 31 nM and 16 nM and the “% I (0.5 μM)” value (canine TRPM8) was 102% and 103%.
With `CCOP(=O)(OCC)C(Cc1cccc(SC(F)(F)F)c1)c1sc2ccccc2c1Cl` (stereo not drawn) [Cpd 296] the IC50 (canine TRPM8) was 137 nM and the “% I (0.5 μM)” value (canine TRPM8) was 102%.
In the case of `CCOP(=O)(OCC)C(Cc1ccc(F)c(Cl)c1)c1sc2ccccc2c1Cl` (stereo not drawn) [Cpd 297], the IC50 (canine TRPM8) is reported as 40 nM and the “% I (0.5 μM)” value (canine TRPM8) is reported as 103%.
With `CCOP(=O)(OCC)C(Cc1ccc(F)c(C(F)(F)F)c1)c1sc2ccccc2c1Cl` (stereo not drawn) [Cpd 298] the “% Reversal” value ([1]; 30 mg/kg p.o., time 1 (h)) was 20%, the IC50 (canine TRPM8) was 85 nM and the “% I (0.5 μM)” value (canine TRPM8) was 99%.
With `CCOP(=O)(OCC)C(Cc1ccc(SC)cc1)c1sc2ccccc2c1Cl` (stereo not drawn) [Cpd 299] the “% Reversal” value ([1]; 30 mg/kg p.o., time 1 (h)) was 23%, the IC50 (canine TRPM8) was 141 nM and the “% I (0.5 μM)” value (canine TRPM8) was 101%.
`CCOP(=O)(OCC)C(Cc1ccc(S(=O)(=O)C(F)(F)F)cc1)c1sc2ccccc2c1Cl` (stereo not drawn) [Cpd 300] was tested, and the IC50 (canine TRPM8) was 89 nM and the “% I (0.5 μM)” value (canine TRPM8) was 103%.
For `CC(C)OP(=O)(OC(C)C)C(Cc1cccc(OC(F)(F)F)c1)c1sc2ccccc2c1Cl` (stereo not drawn) [Cpd 301], the IC50 (canine TRPM8) was 54 nM and the “% I (0.5 μM)” value (canine TRPM8) was 102%.
`CC(C)OP(=O)(OC(C)C)C(Cc1ccc(Cl)c(F)c1)c1sc2ccccc2c1Cl` (stereo not drawn) [Cpd 302] was tested, and the IC50 (canine TRPM8) was 79 nM and the “% I (0.5 μM)” value (canine TRPM8) was 103%.
For `CC(C)OP(=O)(OC(C)C)C(Cc1cc(Cl)ccc1F)c1sc2ccccc2c1Cl` (stereo not drawn) [Cpd 303], the IC50 (canine TRPM8) was 49 nM and the “% I (0.5 μM)” value (canine TRPM8) was 102%.
`CC(C)OP(=O)(OC(C)C)C(Cc1ccc(SC(F)(F)F)cc1)c1sc2ccccc2c1Cl` (stereo not drawn) [Cpd 304] was tested, and the IC50 (canine TRPM8) was 28 nM and the “% I (0.5 μM)” value (canine TRPM8) was 102%.
`CCOP(=O)(OCC)C(Cc1cc(Cl)ccc1F)c1sc2ccccc2c1Cl` (stereo not drawn) [Cpd 305] was tested, and the IC50 (canine TRPM8) was 70 nM and the “% I (0.5 μM)” value (canine TRPM8) was 102%.
In the case of `CC(C)OP(=O)(OC(C)C)C(Cc1ccc(F)cc1)c1sc2ccccc2c1Cl` (stereo not drawn) [Cpd 306], the “% I (0.5 μM)” value (canine TRPM8) is reported as 101% and 102%.
With `CCOP(=O)(OCC)C(Cc1cc(Cl)ccc1F)c1sc2ccccc2c1Br` (stereo not drawn) [Cpd 307] the IC50 (canine TRPM8) was 26 nM and the “% I (0.5 μM)” value (canine TRPM8) was 103%.
`CC(C)OP(=O)(OC(C)C)C(Cc1cc(Cl)ccc1F)c1sc2ccccc2c1Br` (stereo not drawn) [Cpd 308] was tested, and the IC50 (canine TRPM8) was 17 nM and the “% I (0.5 μM)” value (canine TRPM8) was 103%.
In the case of `CCOP(=O)(OCC)C(Cc1cccc([N+](=O)[O-])c1)c1sc2ccccc2c1Br` (stereo not drawn) [Cpd 315], the “% I (0.5 μM)” value (canine TRPM8) is reported as 103%.
With `CCOP(=O)(OCC)C(Cc1cccc(N)c1)c1sc2ccccc2c1Br` (stereo not drawn) [Cpd 318, [2-(3-Amino-phenyl)-1-(3-bromo-benzo[b]thiophen-2-yl)-ethyl]-phosphonic acid diethyl ester] the “% I (0.5 μM)” value (canine TRPM8) was 100%.
